Legend:
[1] = test system: HL-60; assay: Cell Health Index (toxicity pseudo-probability over dose series) (index 0-1); higher = more cytotoxic / cell stress;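 note: HL-60 cells exposed 4 h at 37 °C to ten threefold dilutions spanning 5 nM to 100 µM, multiparametric flow cytometry features scored by machine-learning classification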
[2] = test system: Danio rerio embryo; assay: LEL larval photomotor response dark phase 120 hpf
Method: (§1)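 ZBEscreen: dechorionated Tropical 5D zebrafish embryos were exposed from 4 hpf in 96-well plates (1% DMSO, 28 °C). All compounds were first tested at 100 µM; hits were retested at 0.005-100 µM. Morphology and mortality were scored at 120 hpf and fitted as BMC10 (3-parameter log-logistic, extra risk). The embryonic photomotor response at 24 hpf and the larval photomotor response at 120 hpf are given as lowest effect levels (K-S test, p<0.01). NA = not significant up to 100 µM; NT = not tested.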

[3] = test system: Danio rerio embryo; assay: BMC10 any morphological effect or mortality at 120 hpf; higher = less toxic
[4] = test system: Danio rerio embryo; assay: LEL embryonic photomotor response 24 hpf
Method: as §1

Row | SMILES | Cell Health Index [1] | LEL larval photomotor response dark phase 120 hpf [2] [µM] | BMC10 any morphological effect or mortality [3] [µM] | LEL embryonic photomotor response 24 hpf [4] [µM]
1 | O=C(O)CCCCC1CCSS1 (racemic) [DL-alpha-Lipoic acid] | 0.172 | > 100 | > 100 | > 100
2 | C[C@@]1(O)[C@H](O)[C@@H](CO)O[C@H]1n1ccc(N)nc1=O [2'-C-Methylcytidine] | 0.129 | > 100 | > 100 | > 100
3 | C=C1CC[C@@H]2[C@](C)(CO)[C@H](O)CC[C@@]2(C)[C@@H]1/C=C/C1=CCOC1=O [14-deoxy-11,12-didehydro Andrographolide] | 0.43 | > 100 | > 100 | 100
4 | O=C(O[C@@H]1Cc2c(O)cc(O)cc2O[C@H]1c1cc(O)c(O)c(O)c1)c1cc(O)c(O)c(O)c1 [(-)-Gallocatechin gallate] | 0.859 | > 100 | > 100 | > 100
5 | CCOC(=O)[C@H]1O[C@@H]1C(=O)N[C@@H](CC(C)C)C(=O)NCCC(C)C [Aloxistatin] | 0.151 | > 100 | 10.6 | 33.3
6 | Cl.Nc1c(Br)cc(Br)cc1CN[C@H]1CC[C@H](O)CC1 [Ambroxol] | 0.244 | > 100 | 42.5 | 100
7 | CCN(CC)Cc1cc(Nc2ccnc3cc(Cl)ccc23)ccc1O [Amodiaquine] | 0.271 | 11.1 | 4.04 | 1.23
8 | CC(C)[C@H](NC(=O)[C@H](CCCNC(=N)N)NC(=O)NC(Cc1ccccc1)C(=O)O)C(=O)NC(C=O)CCCNC(=N)N.Cl.Cl (stereo partly specified) [Antipain] | 0.154 | > 100 | > 100 | > 100
9 | O=c1cc(-c2ccc(O)cc2)oc2cc(O)cc(O)c12 [Apigenin] | 0.288 | > 100 | > 100 | > 100
10 | COc1cc(C[C@H]2C(=O)OC[C@@H]2Cc2ccc(OC)c(OC)c2)ccc1O [Arctigenin] | 0.617 | 3.7 | > 100 | > 100
11 | O=C1NC(=O)c2c1c1c3ccccc3[nH]c1c1[nH]c3ccccc3c21 [Arcyriaflavin A] | 0.393 | > 100 | 1.1 | > 100
12 | CC(C)[C@H](N)C(=O)OCC(CO)OCn1cnc2c(=O)nc(N)[nH]c21.Cl (stereo partly specified) [Valganciclovir] | 0.247 | – | > 100 | –
13 | CCCC(CCC)C(=O)O [Valproic acid] | 0.188 | – | > 100 | –
14 | COC[C@H]1C[C@@H](c2ncc(-c3ccc4c(c3)COc3cc5c(ccc6nc([C@@H]7CC[C@H](C)N7C(=O)[C@@H](NC(=O)OC)C(C)C)[nH]c65)cc3-4)[nH]2)N(C(=O)[C@H](NC(=O)OC)c2ccccc2)C1 [Velpatasvir] | 0.286 | – | > 100 | –
15 | C[C@@H]1O[C@@H](O[C@@H]2[C@@H](O)[C@H](OCCc3ccc(O)c(O)c3)O[C@H](CO)[C@H]2OC(=O)/C=C/c2ccc(O)c(O)c2)[C@H](O)[C@H](O)[C@H]1O [Verbascoside] | 0.843 | – | > 100 | –
16 | Nc1ncnc2c1ncn2[C@@H]1O[C@H](CO)[C@@H](O)[C@@H]1O [Vidarabine] | 0.234 | – | > 100 | –
17 | CCOC(=O)CN[C@@H](C(=O)N1CC[C@H]1C(=O)NCc1ccc(C(=N)NO)cc1)C1CCCCC1 [Ximelagatran] | 0.193 | – | > 100 | –
18 | COC(=O)CC[C@H](NC(=O)[C@H](C)NC(=O)OCc1ccccc1)C(=O)N[C@H](C(=O)N[C@@H](CC(=O)OC)C(=O)CF)C(C)C [Z-AEVD-FMK] | 0.179 | – | > 100 | –
19 | O=C(O)C[C@H](NC(=O)OCc1ccccc1)C(=O)COC(=O)c1c(Cl)cccc1Cl [Z-Asp-CH2-DCB] | 0.212 | – | > 100 | –
20 | Nc1ccn([C@H]2CC[C@@H](CO)O2)c(=O)n1 [Zalcitabine] | 0.193 | – | > 100 | –
21 | CC(=O)N[C@H]1[C@H]([C@H](O)[C@H](O)CO)OC(C(=O)O)=C[C@@H]1NC(=N)N [Zanamivir] | 0.22 | – | > 100 | –
22 | Cc1cn([C@H]2C[C@H](N=[N+]=[N-])[C@@H](CO)O2)c(=O)[nH]c1=O [Zidovudine] | 0.17 | – | > 100 | –

— the supplement of paper PMC11821682
